Laboratory results taken from US9382230B2, “Methods and compositions for modulating Ire1, SRC and ABL activity” (The Regents of the University of California, priority 2008, dated 2016).

Legend:
yIre1 = molecular target: T1, yIre1 (Saccharomyces cerevisiae, UniProt P32361); assay: RNA cleavage-based yIre1 activation assay; format: biochemical, yeast; parameters: unit not given here; conditions: 3 μM yIre1, stem loop RNA, 15 μM effector
T1 construct: GST (N); made in house; host or cells: E. coli BL21 CodonPlus (RIPL)
T1 sequence (P32361 with tags, fused parts or gaps limits assumed): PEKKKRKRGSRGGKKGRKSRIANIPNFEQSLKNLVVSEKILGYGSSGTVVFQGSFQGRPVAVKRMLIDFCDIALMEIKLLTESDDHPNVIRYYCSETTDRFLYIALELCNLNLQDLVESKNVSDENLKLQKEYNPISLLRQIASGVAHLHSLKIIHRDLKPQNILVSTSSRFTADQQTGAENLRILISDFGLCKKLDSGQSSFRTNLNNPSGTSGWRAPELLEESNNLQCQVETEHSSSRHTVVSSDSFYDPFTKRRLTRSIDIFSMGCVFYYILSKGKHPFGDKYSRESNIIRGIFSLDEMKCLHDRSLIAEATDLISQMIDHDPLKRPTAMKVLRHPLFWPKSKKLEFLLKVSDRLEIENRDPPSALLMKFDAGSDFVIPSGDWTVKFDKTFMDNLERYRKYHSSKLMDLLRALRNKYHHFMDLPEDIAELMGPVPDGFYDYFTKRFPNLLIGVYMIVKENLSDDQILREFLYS
Experimental: The RNase Cleavage Assay.
(§1) RNA cleavage reactions were conducted at 30° C. in buffer containing 20 mM HEPES (pH 7.5), 70 mM NaCl, 2 mM ADP (pH 7.0), 2 mM Mg(OAc)2, 5 mM DTT, 5% glycerol, less than 1 nM ^32p-labeled RNA substrate, and 3 nM-20 μM Ire1. Reaction solutions and buffers were designed using Biochem Lab Solutions 3.5. Reactions were prepared such that 1 μl of RNA was added to 9 μl of pre-warmed reaction mixture containing all components except RNA. Typically, 3-10 minute time courses were collected starting from 5 seconds for the first time point. At time intervals, 1 μl of solution was withdrawn from each reaction and mixed wish 6 μl stop solution containing 10 M urea, 0.1% SDS, 0.1 mM EDTA, 0.05% xylene cyanol, and 0.05% bromophenol blue. The samples were separated by a denaturing 10% PAGE and exposed on a phosphor storage screen. The screens were scanned on a Storm or a Typhoon instrument and quantified using ImageQuant 5.0 or GelQuant.NET 1.4 programs. The data were plotted and fit in SigmaPlot 6.0.
RNA cleavage can be used to assess yIre1 activation as shown by FIG. 20 and the table below (3 μM yIre1, stem loop RNA, 15 μM effector): […]

[1] = test system: XBP1-GFP reporter in Hek293-FT cells; assay: FACS on Hek293-FT cells transfected with XBP1-GFP reporter; format: cell-based; conditions: treated for 24 hrs
Experimental: Exemplary compounds were assayed and the results are set froth in the table below.

[2] = test system: Xbp-1 mRNA splicing (UPR activation through Ire1) in HEK293 cells; assay: XBP-1 mRNA splicing by RT-PCR in HEK293 cells (UPR); format: cell-based, mammalian; conditions: for % splicing mRNA XBP-I Average: Hek293 cells treated for 4 hrs, RT-PCR; for in vivo activation of Ire1: summary statement
Experimental: The effect of tunicamycin, SU11248, DJM2005, APY24, and APY29 on Ire1 activity was tested in mammalian cells using HEK293 cells as a model system. Cells were treated according to the methods described in Lin J H et al., Science 318:944 (2007). After treatment with the corresponding agents for the indicated time, Xbp-1 mRNA splicing was determined by RT-PCR. Unspliced (u) and spliced (s) Xbp1-mRNA products are indicated and serve as a measure of UPR activation through Ire1.
Exemplary compounds were assayed for their effect on UPR. Results are set forth in FIGS. 18-19 and in the table below.

Ire1 = assay: Summary statement of Ire1 activation or inhibition (assay not specified)
Ire1KR32 = molecular target: T2, Ire1KR32 (Saccharomyces cerevisiae, UniProt P32361); assay: RNase cleavage assay with Ire1 cytosolic constructs (Ire1KR32), co-factors and kinase inhibitors; format: biochemical; conditions: for effect of EDTA (chelation of magnesium) on RNase activity of Ire1KR32 stimulated by the substance: FIG. 3F; for activation of the RNase of Ire1KR32: FIG. 3A
T2 construct: Overview of the Ire1 constructs; GST (N); made in house; host or cells: E. coli BL21 CodonPlus (RIPL)
T2 sequence (P32361 with tags, fused parts or gaps): T1 sequence (P32361 with tags, fused parts or gaps limits assumed)
Experimental: as §1
Variants of the cytosolic portion of Ire1 that contain the kinase and the RNase domains (Ire1KR) and Ire1KR extended by 24 (Ire1KR24) or 32 (Ire1KR32) amino acids towards the N-terminus (FIG. 1A, FIG. 1C, FIG. 7) were prepared. These additional amino acid extensions are part of a ˜100 amino acid-long linker domain that tethers the kinase/RNase domains to the transmembrane domain. All three constructs cleaved site-specifically 5′-32p-labeled stem-loop oligoribonucleotides 14 derived from the XBP1 mRNA (FIG. 1B, FIG. 8). […] No ADP.Mg co-factor was required for the cooperative activation of the RNase.
Ire1KR32 was co-crystallized with inhibitors that were designed to target CDK2 and EGFR kinases. Certain kinase inhibitors fully activated the RNase function of Ire1 (FIG. 3A). This is the first example of wild-type Ire1 activation by synthetic compounds.
Crystals obtained with the inhibitor APY29 allowed the structure determination of the Ire1KR32-APY29 complex at 3.9 Å resolution. A well-resolved density for the inhibitor molecule was found in the ATP binding pocket of the Ire1 kinase domain (FIG. 3B). APY29 forms an extensive hydrogen-bonding network with the protein backbone formed by E746, L747, and C748 (FIG. 3C). Hydrogen bonds are likely to also form with two side chains at the active site, N751, and D828. […] Manual fitting of sunitinib guided by know structures of kinase.inhibitor complexes (e.g., PDB IDs 2G9X and 2F4J) predicts that the compound fills the nucleobase site, but not the sugar and the phosphate sub-sites. […] AIN54 could not be readily fit to the ATP pocket due to steric clashes arising partly because of the unusual position of beta strand β1 that covers the nucleotide-binding pocket of the Ire1 kinase.
This structural difference provides an excellent tool to test the role of magnesium in the RNase activity of Ire1. Accordingly, the effect of EDTA on the RNase activity of Ire1KR32 was examined.

human Ire1 = human Ire1 (Homo sapiens, UniProt O75460); assay: In vitro cleavage of 32P-stem-loop RNA by human Ire1; format: biochemical; conditions: AD series of Ire1 modulators
Experimental: as §1
In vitro cleavage of ^32P-stem-loop RNA by human Ire1, with AD series of Ire1 modulators gave the following results: […]

WT Src = WT Src (Homo sapiens, UniProt P12931); assay: c-Src kinase cross-reactivity assay; format: biochemical
Experimental: (§2) Assays for cross-reactivity with Src and Abl were also conducted. Purified c-Src or Abl were diluted in kinase reaction buffer (10 mM HEPES (pH 7.2), 10 mM MgCl2, 0.2 mM DTT) to a concentration of approximately 10 nM and pre-incubated with 1 mg/mL BSA, 2.5% (v/v) DMSO, 133 μM peptide (sequence EAIYAAPFKKK for Abl and EIYGEFKKK for c-Src), and varying concentrations of inhibitor. Kinase reactions were initiated by the addition of […] cold ATP supplemented with 5 mCi γ^32P ATP and allowed to proceed at room temperature (RT). At 10 minutes […] of the reactions were spotted onto phosphocellulose sheets (P81, Whatman) and subsequently soaked in was buffer (1.0% (v/v) phosphoric acid). The sheets were washed five times in buffer, dried, and transferred radioactivity was measured by phosphorimaging using a Typhoon™ scanner (Molecular Dynamics). Radioactive counts were quantified using ImageQuant software, and titration data were fit to a sigmoidal dose response to derive IC50 values using the Prism® software package. Dose responses were based on a 12 point inhibitor titration, using ⅓ dilutions starting from […].

WT Abl = WT Abl (Homo sapiens, UniProt P00519); assay: Abl kinase cross-reactivity assay; format: biochemical
Experimental: as §2

Chain of human Ire1 (O75460 19-977): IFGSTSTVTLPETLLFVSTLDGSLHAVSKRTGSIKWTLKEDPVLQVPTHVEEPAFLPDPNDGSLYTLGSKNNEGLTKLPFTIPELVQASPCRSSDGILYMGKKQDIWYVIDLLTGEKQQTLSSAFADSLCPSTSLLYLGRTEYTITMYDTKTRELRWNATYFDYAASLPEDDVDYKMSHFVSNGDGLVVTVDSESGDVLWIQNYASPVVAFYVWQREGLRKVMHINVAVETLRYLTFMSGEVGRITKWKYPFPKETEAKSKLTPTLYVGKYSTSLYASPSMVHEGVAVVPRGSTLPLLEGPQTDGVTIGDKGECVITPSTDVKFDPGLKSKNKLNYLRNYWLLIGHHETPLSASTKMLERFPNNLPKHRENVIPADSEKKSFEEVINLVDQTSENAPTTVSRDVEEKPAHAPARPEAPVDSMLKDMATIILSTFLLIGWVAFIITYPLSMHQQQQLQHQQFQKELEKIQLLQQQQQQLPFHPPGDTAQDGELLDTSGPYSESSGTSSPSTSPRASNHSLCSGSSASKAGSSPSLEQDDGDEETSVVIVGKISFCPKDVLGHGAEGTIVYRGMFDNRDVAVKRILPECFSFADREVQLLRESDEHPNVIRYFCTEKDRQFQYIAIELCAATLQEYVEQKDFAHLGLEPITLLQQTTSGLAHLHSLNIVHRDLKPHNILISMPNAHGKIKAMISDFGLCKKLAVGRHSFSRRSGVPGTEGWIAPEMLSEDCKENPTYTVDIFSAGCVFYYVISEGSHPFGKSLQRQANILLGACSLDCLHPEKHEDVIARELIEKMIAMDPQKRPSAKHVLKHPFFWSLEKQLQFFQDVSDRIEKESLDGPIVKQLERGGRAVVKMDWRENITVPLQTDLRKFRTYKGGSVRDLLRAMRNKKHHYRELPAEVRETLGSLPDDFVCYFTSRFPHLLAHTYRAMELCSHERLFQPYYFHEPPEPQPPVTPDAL
Chain of WT Src (P12931 whole entry): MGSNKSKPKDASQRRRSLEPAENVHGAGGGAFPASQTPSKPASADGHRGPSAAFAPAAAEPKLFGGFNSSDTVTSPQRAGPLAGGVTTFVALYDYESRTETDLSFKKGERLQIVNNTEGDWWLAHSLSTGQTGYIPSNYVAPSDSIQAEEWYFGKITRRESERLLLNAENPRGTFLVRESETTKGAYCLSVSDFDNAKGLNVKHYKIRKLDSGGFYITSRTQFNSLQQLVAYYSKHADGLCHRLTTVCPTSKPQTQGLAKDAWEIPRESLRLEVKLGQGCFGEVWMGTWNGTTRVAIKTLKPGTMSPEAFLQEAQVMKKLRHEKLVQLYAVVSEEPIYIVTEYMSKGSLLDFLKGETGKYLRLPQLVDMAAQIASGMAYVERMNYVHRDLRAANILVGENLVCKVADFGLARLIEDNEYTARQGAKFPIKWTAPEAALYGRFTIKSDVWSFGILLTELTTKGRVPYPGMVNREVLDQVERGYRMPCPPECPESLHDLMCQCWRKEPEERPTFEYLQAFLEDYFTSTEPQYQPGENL
Chain of WT Abl (P00519 whole entry): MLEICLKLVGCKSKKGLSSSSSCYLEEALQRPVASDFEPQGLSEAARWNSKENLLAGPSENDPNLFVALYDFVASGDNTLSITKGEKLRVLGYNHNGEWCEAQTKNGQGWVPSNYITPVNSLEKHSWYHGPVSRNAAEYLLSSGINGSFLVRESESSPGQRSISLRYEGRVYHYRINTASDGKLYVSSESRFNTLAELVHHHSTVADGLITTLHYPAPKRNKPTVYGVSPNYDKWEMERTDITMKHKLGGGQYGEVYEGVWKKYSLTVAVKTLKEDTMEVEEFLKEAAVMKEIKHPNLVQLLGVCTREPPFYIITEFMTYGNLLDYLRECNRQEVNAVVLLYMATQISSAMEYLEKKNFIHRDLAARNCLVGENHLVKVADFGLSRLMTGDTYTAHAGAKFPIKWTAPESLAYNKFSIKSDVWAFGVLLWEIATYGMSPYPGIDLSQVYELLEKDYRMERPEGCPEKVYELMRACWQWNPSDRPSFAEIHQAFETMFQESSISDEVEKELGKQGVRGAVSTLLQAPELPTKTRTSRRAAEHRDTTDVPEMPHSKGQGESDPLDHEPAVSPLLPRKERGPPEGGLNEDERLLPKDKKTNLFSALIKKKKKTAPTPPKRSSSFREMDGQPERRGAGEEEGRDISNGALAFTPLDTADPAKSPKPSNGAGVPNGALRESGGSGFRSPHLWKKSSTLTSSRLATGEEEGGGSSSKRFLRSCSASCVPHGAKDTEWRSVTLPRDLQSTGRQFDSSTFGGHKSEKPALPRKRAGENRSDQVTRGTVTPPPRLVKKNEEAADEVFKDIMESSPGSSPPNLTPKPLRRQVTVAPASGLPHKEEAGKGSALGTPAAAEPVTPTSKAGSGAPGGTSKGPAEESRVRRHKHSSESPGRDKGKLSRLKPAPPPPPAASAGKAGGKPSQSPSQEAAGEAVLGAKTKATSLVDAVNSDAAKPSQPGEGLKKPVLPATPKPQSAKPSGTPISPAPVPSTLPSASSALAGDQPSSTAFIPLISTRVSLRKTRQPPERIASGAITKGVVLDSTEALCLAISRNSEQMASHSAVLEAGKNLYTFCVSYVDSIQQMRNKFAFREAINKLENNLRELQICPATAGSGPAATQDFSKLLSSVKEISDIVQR

RNA cleavage (yIre1 activation) (yIre1)	increase of specific RNase activity by co-factor (Ire1KR32; HP21 substrate, Ire1KR, Ire1KR24, Ire1KR32 (FIG. 1D))	In vitro cleavage of 32P-stem-loop RNA by human Ire1 (human Ire1)	IC50 (WT Src) [µM]	IC50 (WT Abl) [µM]	SMILES	% fold induction to Control ([1]; Tm 0.3 ug/ml + compound 2 uM) [%]	Mean fluorescence ([1]; Tm 0.3 ug/ml + compound 2 uM)	% fold induction to Control ([1]; compound 2 uM) [%]	Mean fluorescence ([1]; compound 2 uM)	% splicing mRNA XBP-I Average ([2]; Tm 0.3 ug/ml + compound 2 μM) [%]	% splicing mRNA XBP-I Average ([2]; compound 2 μM) [%]	% splicing mRNA XBP-I Average ([2]; compound 10 μM) [%]	inhibition of Ire1 (Ire1)	effect of EDTA (chelation of magnesium) on RNase activity of Ire1KR32 stimulated by the substance (Ire1KR32)	activation of the RNase of Ire1KR32 (Ire1KR32)	in vivo activation of Ire1 [2]	activation of Ire1 (Ire1)
0.00232					OCCc1ccc(Nc2nccc(Nc3cc(C4CCCCC4)n[nH]3)n2)cc1 [APY33]	49	3613	16	2811	8	8	18	significant inhibition				
	two orders of magnitude				Nc1ncnc2c1ncn2[C@@H]1O[C@H](COP(=O)(O)OP(=O)(O)O)[C@@H](O)[C@H]1O [ADP, reference compound]									decreased by greater than an order of magnitude			
0.07509					c1cc(Nc2cc(C3CC3)[nH]n2)nc(Nc2ccc3[nH]cnc3c2)n1 [APY29]	65	4016	11	2697	40	10	14		remained unchanged	Potent activators		significant activation
		0.0239	0.442	36.8	O=C(Nc1cccc(Nc2nccc(Nc3cc(C4CC4)n[nH]3)n2)c1)Nc1cccc(C(F)(F)F)c1 [AD77, 1-(3-(4-(3-cyclopropyl-1H-pyrazol-5-ylamino)pyrimidin-2-ylamino)phenyl)-3-(3-(trifluoromethyl)phenyl)urea]												significant activation
		0.2317	0.17	2.43	O=C(Nc1ccc(Nc2nccc(Nc3cc(C4CC4)n[nH]3)n2)cc1)Nc1cccc(C(F)(F)F)c1 [AD75, 1-(4-(4-(3-cyclopropyl-1H-pyrazol-5-ylamino)pyrimidin-2-ylamino)phenyl)-3-(3-(trifluoromethyl)phenyl)urea]												significant activation
0.06355					Cc1cc(Nc2cc(C3CC3)n[nH]2)nc(Nc2ccc(CC#N)cc2)n1 [APY69]	16	2805	18	2864	36	23	40				significant in vivo activation	significant activation
0.006479					N#CCc1ccc(Nc2nccc(Nc3cc(C4CCC4)n[nH]3)n2)cc1 [APY77]	9	2648	6	2570	37	21	37					significant activation
		0.0877	0.357	2.15	O=C(Nc1ccc(Nc2nccc(Nc3cc(C4CC4)n[nH]3)n2)cc1)c1cccc(C(F)(F)F)c1 [AD74, N-(4-(4-(3-cyclopropyl-1H-pyrazol-5-ylamino)pyrimidin-2-ylamino)phenyl)-3-(trifluoromethyl)benzamide]												significant activation
		0.0139	0.138	4.96	O=C(Nc1cccc(Nc2nccc(Nc3cc(C4CC4)n[nH]3)n2)c1)c1cccc(C(F)(F)F)c1 [AD76, N-(3-(4-(3-cyclopropyl-1H-pyrazol-5-ylamino)pyrimidin-2-ylamino)phenyl)-3-(trifluoromethyl)benzamide]												significant activation

SMILES	RNA cleavage (yIre1 activation) (yIre1)	increase of specific RNase activity by co-factor (Ire1KR32; HP21 substrate, Ire1KR, Ire1KR24, Ire1KR32 (FIG. 1D))	In vitro cleavage of 32P-stem-loop RNA by human Ire1 (human Ire1)	IC50 (WT Src) [µM]	IC50 (WT Abl) [µM]	% fold induction to Control ([1]; Tm 0.3 ug/ml + compound 2 uM) [%]	Mean fluorescence ([1]; Tm 0.3 ug/ml + compound 2 uM)	% fold induction to Control ([1]; compound 2 uM) [%]	Mean fluorescence ([1]; compound 2 uM)	% splicing mRNA XBP-I Average ([2]; Tm 0.3 ug/ml + compound 2 μM) [%]	% splicing mRNA XBP-I Average ([2]; compound 2 μM) [%]	% splicing mRNA XBP-I Average ([2]; compound 10 μM) [%]	inhibition of Ire1 (Ire1)	effect of EDTA (chelation of magnesium) on RNase activity of Ire1KR32 stimulated by the substance (Ire1KR32)	activation of the RNase of Ire1KR32 (Ire1KR32)	in vivo activation of Ire1 [2]	activation of Ire1 (Ire1)
N#CCc1ccc(Nc2nccc(Nc3cc(C4CC4)[nH]n3)n2)cc1 [APY24]	0.04667					−2	2387	6	2569	28	30	44			Potent activators	significant in vivo activation	significant activation
